In the first assay the test system is E. coli (ATCC 35218), TEM-1 β-lactamase producing strain. Kind of assay: Broth microdilution (CLSI): screening at 100 μM and MIC, E. coli. The settings on record: at 100 uM, Table S4. It is filed as cell-based. As to the method:
(§1) E. coli (ATCC n° […]) – a TEM-1 β-lactamase producing strain, S. aureus (ATCC n° 29213) – herein referred to as MSSA, MRSA (ATCC n° 43300), and two clinical strains of MRSA (n° 5749 and 6154) were used in the biological assays. The antibacterial activity and minimal inhibitory concentration (MIC) of the screened compounds were evaluated with the broth microdilution method in 96-well microplates, according to the Clinical and Laboratory Standards Institute (CLSI) protocol. Initially, compounds were evaluated in a screening assay to identify promising hits. The compounds were dissolved in dimethyl sulfoxide (DMSO) and then diluted in Mueller Hinton broth (MHB; Oxoid, Thermo Scientific, U.K.) to a concentration of 200 μM. After the addition of 100 μL to each well, the same volume of bacterial suspension containing 10^5 CFU/mL was added to each of the previous solutions, resulting in a final compound concentration of 100 μM. A viability control (bacterial suspension only), inhibition controls (MHB containing five times the MIC of penicillin G for MSSA, vancomycin for MRSA strains, and streptomycin for E. coli), a sterility control (medium only), and a vehicle control (DMSO 2% v/v) were included in each assay microplate. After 24 h of incubation at 37 °C, the microplates were visually inspected for inhibition of bacterial growth, and the absorbance at 600 nm of each well was read using a microplate reader spectrophotometer (VersaMax, Molecular Devices, CA). The percentage of growth inhibition was calculated as the percentage of growth reduction compared with the vehicle control. Wells showing no visual bacterial growth (no turbidity) were considered hits. The MIC of the promising compounds in the initial screening were tested as previously described, with a serial dilution of each compound (100–1.56 μM). All conditions were tested in triplicate from at least three independent assays.
Background: Dilution methods test growth across graded concentrations, often in twofold steps.
`NC(=O)CC(NC(=O)OCc1ccccc1)C(=O)O` (stereo not shown) [S43]: the “Percentage of growth inhibition E. coli (ATCC 35218)” value is on record as 0%.
On the same count and under the same terms, under `O=C1C(O)=C(Cc2cn(C3OC(CO)C(O)C(O)C3O)nn2)C(=O)c2ccccc21` (stereo not shown) [S26] stands 0%; under `CC(C)=CCC1=C(NCC(=O)O)C(=O)c2ccccc2C1=O` [S34], 0%; under `CC(=O)NC1C(O)C(O)C(CO)OC1n1cc(CC2=C(O)C(=O)c3ccccc3C2=O)nn1` (stereo not shown) [S27], 0%.
Take `O=C(NCCCN1CCOCC1)c1cc2ccccc2[nH]1` [S49]: the “Percentage of growth inhibition E. coli (ATCC 35218)” value is 0%.
Turning to `N#Cc1cccc(OCC(O)COc2cccc(C#N)c2)c1` [S19], the “Percentage of growth inhibition E. coli (ATCC 35218)” value worked out at 0%.
With `O=C(NC(Cc1ccc(O)cc1)C(=O)O)OCc1ccccc1` (stereo not shown) [S42], the “Percentage of growth inhibition E. coli (ATCC 35218)” value came out at 0%.
In the case of `O=c1cc(-c2ccc(O)c(O)c2)oc2c(C3OC(CO)C(O)C(O)C3O)c(O)cc(O)c12` (stereo not shown) [S54], the “Percentage of growth inhibition E. coli (ATCC 35218)” value came to 0%.
Turning to `O=C(CCc1ccccc1)ON1C(=O)CCC1=O` [S16], the “Percentage of growth inhibition E. coli (ATCC 35218)” value came to 0%.
For the molecule `OCCNCc1cc2ccccc2[nH]1` [S46], the “Percentage of growth inhibition E. coli (ATCC 35218)” value is 0%.
Regarding `C#CCOC1=C(CC=C(C)C)C(=O)c2ccccc2C1=O` [S35], the “Percentage of growth inhibition E. coli (ATCC 35218)” value worked out at 0%.

The next assay has as its system clinical strain of MRSA n° 6154. As to the kind of experiment: Broth microdilution (CLSI): screening at 100 μM and MIC, MRSA clinical strain 6154. It is filed as cell-based, Staphylococcus aureus. The settings on record: at 100 uM, Table S4. On the procedure: as §1
Consider `NC(=O)CC(NC(=O)OCc1ccccc1)C(=O)O` (stereo not shown) [S43], for which the “Percentage of growth inhibition MRSA (6154)” value is given as 0%.
With `O=C1C(O)=C(Cc2cn(C3OC(CO)C(O)C(O)C3O)nn2)C(=O)c2ccccc21` (stereo not shown) [S26], the “Percentage of growth inhibition MRSA (6154)” value is on record as 0%.
With `CC(C)=CCC1=C(NCC(=O)O)C(=O)c2ccccc2C1=O` [S34], the “Percentage of growth inhibition MRSA (6154)” value is 0%.
With `CC(=O)NC1C(O)C(O)C(CO)OC1n1cc(CC2=C(O)C(=O)c3ccccc3C2=O)nn1` (stereo not shown) [S27], the “Percentage of growth inhibition MRSA (6154)” value was 0%.
Regarding `O=C(NCCCN1CCOCC1)c1cc2ccccc2[nH]1` [S49], the “Percentage of growth inhibition MRSA (6154)” value amounted to 0%.
On to `N#Cc1cccc(OCC(O)COc2cccc(C#N)c2)c1` [S19], for which the “Percentage of growth inhibition MRSA (6154)” value worked out at 0%.
Turning to `O=C(NC(Cc1ccc(O)cc1)C(=O)O)OCc1ccccc1` (stereo not shown) [S42], the “Percentage of growth inhibition MRSA (6154)” value was 0%.
With `O=c1cc(-c2ccc(O)c(O)c2)oc2c(C3OC(CO)C(O)C(O)C3O)c(O)cc(O)c12` (stereo not shown) [S54], the “Percentage of growth inhibition MRSA (6154)” value was 0%.
For the molecule `O=C(CCc1ccccc1)ON1C(=O)CCC1=O` [S16], the “Percentage of growth inhibition MRSA (6154)” value amounted to 0%.
`OCCNCc1cc2ccccc2[nH]1` [S46]: the “Percentage of growth inhibition MRSA (6154)” value was determined as 0%.
Regarding `C#CCOC1=C(CC=C(C)C)C(=O)c2ccccc2C1=O` [S35], the “Percentage of growth inhibition MRSA (6154)” value is listed as 0%.

The test system of a further assay is clinical strain of MRSA n° 5749. As to the kind of experiment: Broth microdilution (CLSI): screening at 100 μM and MIC, MRSA clinical strain 5749. It is filed as cell-based, Staphylococcus aureus. The settings on record: at 100 uM, Table S4. On the procedure: as §1
`NC(=O)CC(NC(=O)OCc1ccccc1)C(=O)O` (stereo not shown) [S43]: the “Percentage of growth inhibition MRSA (5749)” value came to 0%.
Take `O=C1C(O)=C(Cc2cn(C3OC(CO)C(O)C(O)C3O)nn2)C(=O)c2ccccc21` (stereo not shown) [S26]: the “Percentage of growth inhibition MRSA (5749)” value is on record as 0%.
Same read-out and setting: under `CC(C)=CCC1=C(NCC(=O)O)C(=O)c2ccccc2C1=O` [S34] stands 0%.
As to `CC(=O)NC1C(O)C(O)C(CO)OC1n1cc(CC2=C(O)C(=O)c3ccccc3C2=O)nn1` (stereo not shown) [S27], the “Percentage of growth inhibition MRSA (5749)” value was found to be 0%.
As to `O=C(NCCCN1CCOCC1)c1cc2ccccc2[nH]1` [S49], the “Percentage of growth inhibition MRSA (5749)” value is recorded as 0%.
With `N#Cc1cccc(OCC(O)COc2cccc(C#N)c2)c1` [S19], the “Percentage of growth inhibition MRSA (5749)” value is recorded as 0%.
Turning to `O=C(NC(Cc1ccc(O)cc1)C(=O)O)OCc1ccccc1` (stereo not shown) [S42], the “Percentage of growth inhibition MRSA (5749)” value came out at 0%.
On to `O=c1cc(-c2ccc(O)c(O)c2)oc2c(C3OC(CO)C(O)C(O)C3O)c(O)cc(O)c12` (stereo not shown) [S54], for which the “Percentage of growth inhibition MRSA (5749)” value is reported as 0%.
As to `O=C(CCc1ccccc1)ON1C(=O)CCC1=O` [S16], the “Percentage of growth inhibition MRSA (5749)” value worked out at 0%.
For the molecule `OCCNCc1cc2ccccc2[nH]1` [S46], the “Percentage of growth inhibition MRSA (5749)” value turned out to be 0%.
With `C#CCOC1=C(CC=C(C)C)C(=O)c2ccccc2C1=O` [S35], the “Percentage of growth inhibition MRSA (5749)” value came to 0%.

For a further assay, the system named is MRSA (ATCC n° 43300). As to the kind of experiment: Broth microdilution (CLSI): screening at 100 μM and MIC, MRSA reference strain. It is filed as cell-based, Staphylococcus aureus. The settings on record: at 100 uM, Table S4. On the procedure:
as §1
Turning to `NC(=O)CC(NC(=O)OCc1ccccc1)C(=O)O` (stereo not shown) [S43], the “Percentage of growth inhibition MRSA (ATCC 43300)” value worked out at 0%.
For `O=C1C(O)=C(Cc2cn(C3OC(CO)C(O)C(O)C3O)nn2)C(=O)c2ccccc21` (stereo not shown) [S26], the “Percentage of growth inhibition MRSA (ATCC 43300)” value is 0%.
For the molecule `CC(C)=CCC1=C(NCC(=O)O)C(=O)c2ccccc2C1=O` [S34], the “Percentage of growth inhibition MRSA (ATCC 43300)” value was 0%.
With `CC(=O)NC1C(O)C(O)C(CO)OC1n1cc(CC2=C(O)C(=O)c3ccccc3C2=O)nn1` (stereo not shown) [S27], the “Percentage of growth inhibition MRSA (ATCC 43300)” value was determined as 0%.
For the molecule `O=C(NCCCN1CCOCC1)c1cc2ccccc2[nH]1` [S49], the “Percentage of growth inhibition MRSA (ATCC 43300)” value is on record as 0%.
For the molecule `N#Cc1cccc(OCC(O)COc2cccc(C#N)c2)c1` [S19], the “Percentage of growth inhibition MRSA (ATCC 43300)” value came out at 0%.
In the case of `O=C(NC(Cc1ccc(O)cc1)C(=O)O)OCc1ccccc1` (stereo not shown) [S42], the “Percentage of growth inhibition MRSA (ATCC 43300)” value stood at 0%.
As to `O=c1cc(-c2ccc(O)c(O)c2)oc2c(C3OC(CO)C(O)C(O)C3O)c(O)cc(O)c12` (stereo not shown) [S54], the “Percentage of growth inhibition MRSA (ATCC 43300)” value stood at 0%.
Still for that read-out and setting: under `O=C(CCc1ccccc1)ON1C(=O)CCC1=O` [S16] stands 0%.
`OCCNCc1cc2ccccc2[nH]1` [S46]: the “Percentage of growth inhibition MRSA (ATCC 43300)” value came to 0%.
For `C#CCOC1=C(CC=C(C)C)C(=O)c2ccccc2C1=O` [S35], the “Percentage of growth inhibition MRSA (ATCC 43300)” value stood at 0%.

The next assay concerns S. aureus (ATCC n° 29213), MSSA. Kind of assay: Broth microdilution (CLSI): screening at 100 μM and MIC, MSSA. The assay is classed as cell-based, Staphylococcus aureus. The note with it: at 100 uM, Table S4. As to the method: as §1
As to `NC(=O)CC(NC(=O)OCc1ccccc1)C(=O)O` (stereo not shown) [S43], the “Percentage of growth inhibition MSSA (ATCC 29123)” value is listed as 0%.
Regarding `O=C1C(O)=C(Cc2cn(C3OC(CO)C(O)C(O)C3O)nn2)C(=O)c2ccccc21` (stereo not shown) [S26], the “Percentage of growth inhibition MSSA (ATCC 29123)” value stood at 0%.
In the case of `CC(C)=CCC1=C(NCC(=O)O)C(=O)c2ccccc2C1=O` [S34], the “Percentage of growth inhibition MSSA (ATCC 29123)” value is 0%.
Regarding `CC(=O)NC1C(O)C(O)C(CO)OC1n1cc(CC2=C(O)C(=O)c3ccccc3C2=O)nn1` (stereo not shown) [S27], the “Percentage of growth inhibition MSSA (ATCC 29123)” value was 0%.
As to `O=C(NCCCN1CCOCC1)c1cc2ccccc2[nH]1` [S49], the “Percentage of growth inhibition MSSA (ATCC 29123)” value was found to be 0%.
On to `N#Cc1cccc(OCC(O)COc2cccc(C#N)c2)c1` [S19], for which the “Percentage of growth inhibition MSSA (ATCC 29123)” value worked out at 0%.
For `O=C(NC(Cc1ccc(O)cc1)C(=O)O)OCc1ccccc1` (stereo not shown) [S42], the “Percentage of growth inhibition MSSA (ATCC 29123)” value came out at 0%.
Consider `O=c1cc(-c2ccc(O)c(O)c2)oc2c(C3OC(CO)C(O)C(O)C3O)c(O)cc(O)c12` (stereo not shown) [S54], for which the “Percentage of growth inhibition MSSA (ATCC 29123)” value is on record as 0%.
Regarding `O=C(CCc1ccccc1)ON1C(=O)CCC1=O` [S16], the “Percentage of growth inhibition MSSA (ATCC 29123)” value was 0%.
For the molecule `OCCNCc1cc2ccccc2[nH]1` [S46], the “Percentage of growth inhibition MSSA (ATCC 29123)” value is 0%.
Turning to `C#CCOC1=C(CC=C(C)C)C(=O)c2ccccc2C1=O` [S35], the “Percentage of growth inhibition MSSA (ATCC 29123)” value stood at 0%.

The record behind these values is paper PMC12212627, “Machine Learning-Based Virtual Screening of Antibacterial Agents against Methicillin-Susceptible and Resistant Staphylococcus aureus” (Journal of Chemical Information and Modeling, 2024).
